Measurements published in patent US6579469B1, “Cyanoacrylate solutions containing preservatives” (priority 1999, dated 2003).

Assay: Compatibility of antimicrobial agent with sterilization procedures
Type: physicochemical
Details: comparison of Tables II and III
Text: Optionally, in embodiments of the present invention, the potential agent can be tested for its compatibility with one or more sterilization procedures. This optional screening procedure can also be performed by mixing an appropriate amount of the agent with a desired amount of the monomer composition and any other desired additives, and then subjecting the resultant composition to one or more sterilization procedures. Compatibility of the agent with one or more sterilization procedures is preferred in embodiments of the present invention because many uses of the polymerizable monomer compositions, such as many medical applications, require or prefer sterilized products. Following sterilization, the agent can exert antimicrobial action in killing or preventing growth of microbes that may be introduced into the pre-sterilized monomer compositions.

Cc1ccc(C(C)C)c(O)c1 [thymol]
Compatibility with forms of sterilization: more compatible with one form of sterilization than it is with another form of sterilization
